The target of assay [1] is T1, Mitogen-activated protein kinase kinase kinase 5 (Homo sapiens) (UniProt Q99683).
T1 sequence (whole entry): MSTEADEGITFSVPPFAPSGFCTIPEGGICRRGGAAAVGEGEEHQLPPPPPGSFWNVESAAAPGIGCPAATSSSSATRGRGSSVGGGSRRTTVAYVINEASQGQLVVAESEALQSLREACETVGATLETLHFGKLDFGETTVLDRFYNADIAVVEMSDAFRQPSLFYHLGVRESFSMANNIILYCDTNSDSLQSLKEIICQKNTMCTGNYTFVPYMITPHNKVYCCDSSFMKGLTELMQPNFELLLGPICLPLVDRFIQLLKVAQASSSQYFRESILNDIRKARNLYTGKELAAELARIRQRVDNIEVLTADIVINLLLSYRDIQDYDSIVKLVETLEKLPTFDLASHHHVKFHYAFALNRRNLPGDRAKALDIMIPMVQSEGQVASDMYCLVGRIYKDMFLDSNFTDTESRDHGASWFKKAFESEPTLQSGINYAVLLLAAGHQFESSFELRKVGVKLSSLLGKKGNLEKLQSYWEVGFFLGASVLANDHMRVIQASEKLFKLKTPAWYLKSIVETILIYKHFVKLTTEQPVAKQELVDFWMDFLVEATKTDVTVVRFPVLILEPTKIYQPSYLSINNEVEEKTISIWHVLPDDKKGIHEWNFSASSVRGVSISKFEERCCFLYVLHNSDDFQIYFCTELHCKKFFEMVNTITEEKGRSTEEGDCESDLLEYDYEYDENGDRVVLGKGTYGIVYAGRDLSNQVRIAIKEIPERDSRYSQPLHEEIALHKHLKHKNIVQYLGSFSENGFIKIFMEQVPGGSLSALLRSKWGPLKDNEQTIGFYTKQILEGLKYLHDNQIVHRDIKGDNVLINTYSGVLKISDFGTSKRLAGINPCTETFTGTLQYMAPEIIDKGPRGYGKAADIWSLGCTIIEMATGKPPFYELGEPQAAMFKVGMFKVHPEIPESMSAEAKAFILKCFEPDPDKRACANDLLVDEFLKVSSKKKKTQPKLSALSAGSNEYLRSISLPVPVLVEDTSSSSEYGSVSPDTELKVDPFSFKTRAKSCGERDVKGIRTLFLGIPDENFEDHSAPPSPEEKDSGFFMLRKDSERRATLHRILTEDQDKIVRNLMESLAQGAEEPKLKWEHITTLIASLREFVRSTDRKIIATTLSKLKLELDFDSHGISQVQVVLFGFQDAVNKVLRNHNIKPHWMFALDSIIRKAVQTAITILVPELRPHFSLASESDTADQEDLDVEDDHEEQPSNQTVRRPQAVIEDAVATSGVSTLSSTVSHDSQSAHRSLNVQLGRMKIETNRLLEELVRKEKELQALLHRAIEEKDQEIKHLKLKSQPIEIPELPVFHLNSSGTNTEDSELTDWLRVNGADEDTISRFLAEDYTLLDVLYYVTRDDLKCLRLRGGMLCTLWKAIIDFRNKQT
The assay can be described thus: Inhibition of human ASK1 at 500 nM by HotSpot assay relative to control.

Assay [2] deals with Casein kinase I isoform alpha (Homo sapiens) (UniProt P48729). The assay can be described thus: Inhibition of human CK1a1 at 500 nM by HotSpot assay relative to control.
Assay [3] has as its target Death-associated protein kinase 2 (Homo sapiens) (UniProt Q9UIK4). The assay can be described thus: Inhibition of human DAPK2 at 500 nM by HotSpot assay relative to control.
Assay [4] has as its target Dual specificity tyrosine-phosphorylation-regulated kinase 1B (Homo sapiens) (UniProt Q9Y463). The assay can be described thus: Inhibition of human DYRK1B at 500 nM by HotSpot assay relative to control.
The target in assay [5] is Fibroblast growth factor receptor 3 (Homo sapiens) (UniProt P22607). The assay can be described thus: Inhibition of human FGFR3 at 500 nM by HotSpot assay relative to control.
Assay [6] concerns the target Homeodomain-interacting protein kinase 2 (Homo sapiens) (UniProt Q9H2X6). Nature of the assay: Inhibition of human HIPK2 at 500 nM by HotSpot assay relative to control.
Assay [7] concerns the target Insulin receptor-related protein (Homo sapiens) (UniProt P14616). The assay can be described thus: Inhibition of human IRR at 500 nM by HotSpot assay relative to control.
Assay [8] addresses MAP/microtubule affinity-regulating kinase 3 (Homo sapiens) (UniProt P27448). The assay can be described thus: Inhibition of human MARK3 at 500 nM by HotSpot assay relative to control.
Assay [9] concerns the target Mitogen-activated protein kinase kinase kinase 11 (Homo sapiens) (UniProt Q16584). The assay can be described thus: Inhibition of human MAP3K11 at 500 nM by HotSpot assay relative to control.
Assay [10] concerns the target T2, Serine/threonine-protein kinase D2 (Homo sapiens) (UniProt Q9BZL6).
T2 sequence (whole entry): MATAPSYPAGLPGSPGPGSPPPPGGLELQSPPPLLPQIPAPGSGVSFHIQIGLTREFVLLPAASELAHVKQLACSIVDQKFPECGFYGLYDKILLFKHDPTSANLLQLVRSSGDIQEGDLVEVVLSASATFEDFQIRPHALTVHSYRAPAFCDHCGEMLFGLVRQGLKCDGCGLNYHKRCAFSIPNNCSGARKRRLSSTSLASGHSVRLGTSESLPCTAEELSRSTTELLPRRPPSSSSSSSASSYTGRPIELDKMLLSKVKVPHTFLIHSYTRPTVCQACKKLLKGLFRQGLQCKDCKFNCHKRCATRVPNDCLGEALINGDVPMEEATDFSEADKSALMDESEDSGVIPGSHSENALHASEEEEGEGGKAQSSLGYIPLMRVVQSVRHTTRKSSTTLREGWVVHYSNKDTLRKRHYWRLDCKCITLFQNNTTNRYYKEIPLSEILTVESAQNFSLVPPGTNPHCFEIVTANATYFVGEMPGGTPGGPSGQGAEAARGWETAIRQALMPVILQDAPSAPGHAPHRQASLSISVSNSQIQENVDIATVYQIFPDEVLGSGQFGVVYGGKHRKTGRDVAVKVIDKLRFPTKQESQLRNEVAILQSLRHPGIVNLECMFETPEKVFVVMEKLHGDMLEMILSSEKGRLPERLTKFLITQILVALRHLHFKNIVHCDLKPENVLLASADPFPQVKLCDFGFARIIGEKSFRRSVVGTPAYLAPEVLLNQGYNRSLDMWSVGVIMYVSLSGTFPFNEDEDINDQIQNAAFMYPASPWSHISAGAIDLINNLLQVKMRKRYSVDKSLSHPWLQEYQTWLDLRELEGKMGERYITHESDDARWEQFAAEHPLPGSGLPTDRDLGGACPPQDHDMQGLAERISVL
Nature of the assay: Inhibition of human PRKD2 at 500 nM by HotSpot assay relative to control.

One may read the inhibition as the relative decrease from the control value, in per cent.

Chain of Dual specificity tyrosine-phosphorylation-regulated kinase 1B (Homo sapiens) (Q9Y463 whole entry, looked up): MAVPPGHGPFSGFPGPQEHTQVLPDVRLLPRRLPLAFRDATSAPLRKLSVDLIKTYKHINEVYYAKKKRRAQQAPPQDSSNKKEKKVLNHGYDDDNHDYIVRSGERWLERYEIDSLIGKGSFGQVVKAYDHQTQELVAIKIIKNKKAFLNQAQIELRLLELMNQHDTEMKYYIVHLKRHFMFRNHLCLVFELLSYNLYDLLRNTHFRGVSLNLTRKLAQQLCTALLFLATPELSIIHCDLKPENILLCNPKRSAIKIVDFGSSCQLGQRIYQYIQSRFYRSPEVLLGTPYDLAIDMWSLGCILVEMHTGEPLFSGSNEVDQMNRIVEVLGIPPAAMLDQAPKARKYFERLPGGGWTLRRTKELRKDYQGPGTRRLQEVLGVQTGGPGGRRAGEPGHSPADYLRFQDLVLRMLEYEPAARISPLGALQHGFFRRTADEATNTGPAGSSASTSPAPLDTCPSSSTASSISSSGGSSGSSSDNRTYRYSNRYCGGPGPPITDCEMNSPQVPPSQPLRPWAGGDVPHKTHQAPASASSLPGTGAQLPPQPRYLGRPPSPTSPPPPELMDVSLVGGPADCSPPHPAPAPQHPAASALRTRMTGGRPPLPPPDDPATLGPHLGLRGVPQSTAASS
Chain of Death-associated protein kinase 2 (Homo sapiens) (Q9UIK4 whole entry, looked up): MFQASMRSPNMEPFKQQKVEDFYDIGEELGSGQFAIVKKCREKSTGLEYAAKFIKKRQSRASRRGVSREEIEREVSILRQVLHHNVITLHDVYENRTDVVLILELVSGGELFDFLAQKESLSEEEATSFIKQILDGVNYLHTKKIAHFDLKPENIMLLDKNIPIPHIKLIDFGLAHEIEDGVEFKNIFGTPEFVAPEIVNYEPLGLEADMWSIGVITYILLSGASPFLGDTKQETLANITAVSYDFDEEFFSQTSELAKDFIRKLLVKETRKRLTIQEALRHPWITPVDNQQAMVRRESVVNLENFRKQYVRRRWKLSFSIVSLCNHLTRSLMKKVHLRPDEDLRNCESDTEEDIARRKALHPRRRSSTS
Chain of Fibroblast growth factor receptor 3 (Homo sapiens) (P22607 23-806 limits assumed): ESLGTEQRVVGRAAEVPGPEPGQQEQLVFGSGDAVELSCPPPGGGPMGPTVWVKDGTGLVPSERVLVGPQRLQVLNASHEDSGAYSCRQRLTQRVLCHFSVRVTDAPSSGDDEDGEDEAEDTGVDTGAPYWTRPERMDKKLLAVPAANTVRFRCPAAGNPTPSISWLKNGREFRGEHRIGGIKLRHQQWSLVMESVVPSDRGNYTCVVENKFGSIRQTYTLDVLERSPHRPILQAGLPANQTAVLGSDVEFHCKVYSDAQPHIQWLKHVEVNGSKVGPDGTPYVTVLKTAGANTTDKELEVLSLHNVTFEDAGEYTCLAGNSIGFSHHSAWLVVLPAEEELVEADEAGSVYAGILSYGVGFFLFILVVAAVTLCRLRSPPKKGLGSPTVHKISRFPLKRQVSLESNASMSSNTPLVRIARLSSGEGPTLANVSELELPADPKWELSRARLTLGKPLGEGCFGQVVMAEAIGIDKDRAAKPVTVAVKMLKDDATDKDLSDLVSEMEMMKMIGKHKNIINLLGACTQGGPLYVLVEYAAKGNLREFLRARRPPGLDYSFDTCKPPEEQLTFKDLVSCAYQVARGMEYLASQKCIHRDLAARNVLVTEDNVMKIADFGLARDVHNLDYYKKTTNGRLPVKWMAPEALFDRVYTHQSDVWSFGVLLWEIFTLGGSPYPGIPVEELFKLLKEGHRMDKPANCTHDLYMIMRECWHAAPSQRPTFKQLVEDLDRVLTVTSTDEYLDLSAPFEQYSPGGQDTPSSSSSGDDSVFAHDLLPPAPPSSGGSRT
Chain of Homeodomain-interacting protein kinase 2 (Homo sapiens) (Q9H2X6 whole entry, looked up): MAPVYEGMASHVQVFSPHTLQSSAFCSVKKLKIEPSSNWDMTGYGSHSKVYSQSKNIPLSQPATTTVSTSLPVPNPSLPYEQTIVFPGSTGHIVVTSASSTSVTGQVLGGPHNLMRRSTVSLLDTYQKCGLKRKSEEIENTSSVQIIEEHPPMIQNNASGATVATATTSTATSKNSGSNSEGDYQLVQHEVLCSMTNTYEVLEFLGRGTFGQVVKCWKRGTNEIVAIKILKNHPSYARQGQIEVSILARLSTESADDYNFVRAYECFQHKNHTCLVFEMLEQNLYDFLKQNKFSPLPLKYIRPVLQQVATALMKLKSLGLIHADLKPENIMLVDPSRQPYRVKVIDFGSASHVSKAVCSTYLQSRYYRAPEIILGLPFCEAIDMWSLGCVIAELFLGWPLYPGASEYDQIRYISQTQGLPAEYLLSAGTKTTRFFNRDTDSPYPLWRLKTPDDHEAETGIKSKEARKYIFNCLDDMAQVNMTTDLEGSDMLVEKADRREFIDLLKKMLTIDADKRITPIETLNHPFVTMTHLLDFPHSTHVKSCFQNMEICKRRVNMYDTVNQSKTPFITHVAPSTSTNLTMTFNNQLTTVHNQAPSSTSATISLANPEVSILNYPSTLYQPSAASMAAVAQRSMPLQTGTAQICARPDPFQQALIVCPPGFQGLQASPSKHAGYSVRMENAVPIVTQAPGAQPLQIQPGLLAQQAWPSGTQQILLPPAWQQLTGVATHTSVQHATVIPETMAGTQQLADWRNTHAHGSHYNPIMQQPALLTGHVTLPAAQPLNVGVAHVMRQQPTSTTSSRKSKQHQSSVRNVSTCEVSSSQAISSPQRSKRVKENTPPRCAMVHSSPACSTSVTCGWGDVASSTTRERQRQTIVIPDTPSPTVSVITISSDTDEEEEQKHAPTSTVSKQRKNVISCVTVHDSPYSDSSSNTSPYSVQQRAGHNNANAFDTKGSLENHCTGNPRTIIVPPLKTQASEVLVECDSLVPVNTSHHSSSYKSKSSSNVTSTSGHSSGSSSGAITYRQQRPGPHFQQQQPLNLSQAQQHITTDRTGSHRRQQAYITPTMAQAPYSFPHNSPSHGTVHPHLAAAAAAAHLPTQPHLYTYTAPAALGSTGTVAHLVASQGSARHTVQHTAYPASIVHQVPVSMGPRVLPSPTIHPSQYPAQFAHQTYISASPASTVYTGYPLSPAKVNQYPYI
Chain of Insulin receptor-related protein (Homo sapiens) (P14616 27-742 limits assumed): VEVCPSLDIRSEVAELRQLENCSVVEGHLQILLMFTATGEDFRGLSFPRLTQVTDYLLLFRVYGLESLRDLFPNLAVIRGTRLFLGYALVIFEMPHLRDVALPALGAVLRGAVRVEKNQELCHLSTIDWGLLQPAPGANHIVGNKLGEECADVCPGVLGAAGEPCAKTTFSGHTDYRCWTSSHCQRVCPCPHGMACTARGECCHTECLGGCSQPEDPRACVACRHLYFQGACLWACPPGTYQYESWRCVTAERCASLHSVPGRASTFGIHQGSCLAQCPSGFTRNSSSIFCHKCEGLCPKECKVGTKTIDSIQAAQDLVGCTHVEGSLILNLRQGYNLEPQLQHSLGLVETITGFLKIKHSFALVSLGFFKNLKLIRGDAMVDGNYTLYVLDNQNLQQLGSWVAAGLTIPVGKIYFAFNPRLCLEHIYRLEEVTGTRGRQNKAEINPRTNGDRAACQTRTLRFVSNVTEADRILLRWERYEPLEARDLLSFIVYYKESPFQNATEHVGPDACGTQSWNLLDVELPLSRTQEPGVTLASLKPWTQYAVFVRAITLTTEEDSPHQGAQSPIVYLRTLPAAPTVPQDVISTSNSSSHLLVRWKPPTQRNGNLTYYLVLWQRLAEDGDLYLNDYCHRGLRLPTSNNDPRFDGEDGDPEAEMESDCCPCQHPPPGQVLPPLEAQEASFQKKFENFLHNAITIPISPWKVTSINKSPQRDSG
Chain of Insulin receptor-related protein (Homo sapiens) (P14616 747-1297 limits assumed): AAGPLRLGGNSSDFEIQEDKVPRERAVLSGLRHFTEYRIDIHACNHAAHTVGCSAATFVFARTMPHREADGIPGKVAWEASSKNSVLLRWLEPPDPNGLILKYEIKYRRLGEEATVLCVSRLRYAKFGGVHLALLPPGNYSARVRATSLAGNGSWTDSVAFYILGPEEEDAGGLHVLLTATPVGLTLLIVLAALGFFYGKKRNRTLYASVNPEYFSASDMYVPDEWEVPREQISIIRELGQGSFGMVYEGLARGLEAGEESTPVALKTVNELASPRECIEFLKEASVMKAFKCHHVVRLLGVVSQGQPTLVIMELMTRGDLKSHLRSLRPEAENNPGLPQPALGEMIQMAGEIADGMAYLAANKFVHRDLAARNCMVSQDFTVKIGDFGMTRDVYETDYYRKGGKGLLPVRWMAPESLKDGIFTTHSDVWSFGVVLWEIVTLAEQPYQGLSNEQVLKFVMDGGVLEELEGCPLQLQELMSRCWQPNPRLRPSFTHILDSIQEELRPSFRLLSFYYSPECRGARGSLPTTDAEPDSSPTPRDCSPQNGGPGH
Chain of Casein kinase I isoform alpha (Homo sapiens) (P48729 2-337 limits assumed): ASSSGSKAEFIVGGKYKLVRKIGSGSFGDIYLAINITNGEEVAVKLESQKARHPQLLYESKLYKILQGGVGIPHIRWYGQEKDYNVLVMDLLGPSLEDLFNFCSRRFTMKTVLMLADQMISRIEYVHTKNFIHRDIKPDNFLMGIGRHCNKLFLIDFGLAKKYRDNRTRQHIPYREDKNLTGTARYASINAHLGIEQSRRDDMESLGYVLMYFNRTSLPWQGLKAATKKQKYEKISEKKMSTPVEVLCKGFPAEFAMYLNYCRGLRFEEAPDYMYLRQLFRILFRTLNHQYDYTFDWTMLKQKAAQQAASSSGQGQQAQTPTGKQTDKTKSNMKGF

`Oc1n[nH]c2nnc(-c3c(-c4ccccc4)nn4ccccc34)cc12`: the inhibition in assay [1] is 0.05%; in [2], -6.61%; in assay [3] it was -0.84%; in assay [4], -1.78%; in assay [5] it was -3.4%; in assay [6], -0.79%. In addition, the inhibition in assay [7] was 13.8%; in assay [8], -2.48%; in [9], 2.87%; in assay [10] it was 2.86%.
Take `Nc1n[nH]c2nnc(-c3c(-c4ccccc4)nn4ccccc34)cc12`: the inhibition is 0.68% in [1]; -0.27% in [2]; -2.75% in assay [3]; -0.86% in [4]; -1.72% in [5]; 0.35% in [6]. The inhibition in [7] stood at 4.29%; in [8], 0.66%; in assay [9], 5.68%; in assay [10], 45.9%.

These data come from ChEMBL document CHEMBL5653615 (J Biol Chem, 2013).
